MIC and Activity data for nine compounds are collected here from ChEMBL document CHEMBL1137173, “Synthesis of an unusual branched-chain sugar, 5-C-methyl-L-idopyranose for SAR studies of pyranmycins: implication for the future design of aminoglycoside antibiotics” (2004).

Molecules are shown by their SMILES. In brackets after ≈: the same amount, converted by molar mass.

Experiment [1] has as its system Staphylococcus aureus. Description: Minimum inhibitory concentration required against Staphylococcus aureus. It counts as functional.
The subject of experiment [2] is Escherichia coli. Description: Minimum inhibitory concentration required against Escherichia coli. Type of experiment: functional.
Experiment [3] deals with Ribosomal RNA A-site. Description: Binding affinity towards decoding region at A-site of 16s rRNA. It counts as nucleic-acid assay. More on the design: unit not given here.
Setting [4] is: Staphylococcus aureus, read-out: MIC.
Where [5] appears, read: Escherichia coli, read-out: MIC.

For the compound `C[C@@H]1O[C@@H](O[C@@H]2[C@H](O)[C@H](N)C[C@@H](N)[C@H]2O[C@H]2O[C@@H](CN)[C@@H](O)[C@H](O)[C@@H]2N)[C@@H](O)[C@@H](O)[C@@H]1O.Cl.Cl.Cl.Cl` (stereo in doubt; form 2), the MIC in experiment [1] came to 13 µM; in experiment [2], 19 µM.
Regarding `C[C@@H]1O[C@@H](O[C@@H]2[C@H](O)[C@H](N)C[C@@H](N)[C@H]2O[C@H]2O[C@@H](CN)[C@@H](O)[C@H](O)[C@@H]2N)[C@@H](O)[C@@H](O)[C@@H]1O` (stereo in doubt; form 2), the Activity in experiment [3] was -314.
Regarding `NC[C@@H]1O[C@H](O[C@H]2[C@H](O[C@@H]3O[C@H](CN)[C@@H](O)[C@H](O)[C@@H]3O)[C@H](O)[C@H](N)C[C@H]2N)[C@@H](N)[C@@H](O)[C@@H]1O`, the MIC in experiment [1] (setting [4]) was 2 µM (≈ 0.967 µg/mL); in experiment [2] (setting [5]), 9 µM (≈ 4.35 µg/mL). This compound also showed an Activity in experiment [3] of -394.
For the compound `C[C@@H]1O[C@@H](O[C@@H]2[C@H](O)[C@H](N)C[C@@H](N)[C@H]2O[C@H]2O[C@@H](CN)[C@@H](O)[C@H](O)[C@@H]2N)[C@@H](O)[C@@H](O)[C@@H]1O.Cl.Cl.Cl.Cl` (stereo in doubt; form 1), the MIC was 15 µM in experiment [1] (setting [4]) and 91 µM in experiment [2].
For `NC[C@@H]1O[C@H](O[C@H]2[C@H](O[C@@H]3OC(CO)(CO)[C@@H](O)[C@H](O)[C@@H]3O)[C@H](O)[C@H](N)C[C@H]2N)[C@@H](N)[C@@H](O)[C@@H]1O`, the results for the MIC in experiment [1] (setting [4]) and in experiment [2] (setting [5]) were 7 µM (≈ 3.6 µg/mL) and 22 µM (≈ 11.3 µg/mL), respectively. For the same compound, in experiment [3], the Activity is -315.
For the compound `C[C@@H]1O[C@@H](O[C@@H]2[C@H](O)[C@H](N)C[C@@H](N)[C@H]2O[C@H]2O[C@@H](CN)[C@@H](O)[C@H](O)[C@@H]2N)[C@@H](O)[C@@H](O)[C@@H]1O` (stereo in doubt; form 1), the Activity in experiment [3] is -320.
`NC[C@@H]1O[C@H](O[C@H]2[C@@H](O)[C@H](O[C@@H]3[C@@H](O)[C@H](N)C[C@H](N)[C@H]3O[C@H]3O[C@H](CN)[C@@H](O)[C@H](O)[C@H]3N)O[C@@H]2CO)[C@H](N)[C@@H](O)[C@@H]1O` [FRAMYCETIN]: the figures for the MIC in experiment [1] (setting [4]) and in experiment [2] (setting [5]) were 3 µM (≈ 1.84 µg/mL) and 2 µM (≈ 1.23 µg/mL), respectively. Also, the Activity in experiment [3] was -474.
As for `C[C@]1(CO)O[C@@H](O[C@@H]2[C@H](O)[C@H](N)C[C@@H](N)[C@H]2O[C@H]2O[C@@H](CN)[C@@H](O)[C@H](O)[C@@H]2N)[C@@H](O)[C@@H](O)[C@@H]1O`, the MIC in experiment [1] (setting [4]) came out at 27 µM (≈ 13.5 µg/mL); in experiment [2] (setting [5]) it was 87 µM (≈ 43.4 µg/mL). This compound also returned an Activity in experiment [3] of -318.
On to `NC[C@@H]1O[C@H](O[C@H]2[C@H](O[C@@H]3O[C@H](CO)[C@@H](O)[C@H](O)[C@@H]3O)[C@H](O)[C@H](N)C[C@H]2N)[C@@H](N)[C@@H](O)[C@@H]1O`, for which the MIC in experiment [1] (setting [4]) came to 3 µM (≈ 1.45 µg/mL); in experiment [2] (setting [5]), 11 µM (≈ 5.33 µg/mL). This compound also gave an Activity in experiment [3] of -320.
